Laboratory results as given in patent publication US20180085345A1, “METHODS OF TRACKING SKIN CONDITIONS USING CYCLOLIGNAN COMPOUNDS” (m. Alphabet 2, L.L.C., priority 2015, published 2018).

How the values were obtained:
[1] = tested on: actinic keratoses; assay: Randomized, blinded study of topical picropodophyllin solution in actinic keratoses: lesion count in the treatment area; assay type: in vivo, patients; conditions: topical twice daily for 1 week
Experimental: To date, 56 patients have been studied to determine the efficacy of picropodophyllin in treating actinic keratoses. The patients were randomized into four groups, and the patients in each group were treated with a solution containing either 0.5%, 1.25%, or 2.0% picropodophyllin (w/v) in propylene glycol, or a placebo constituting only the vehicle propylene glycol. The picropodophyllin solution was prepared in 100% propylene glycol solution. The solutions were prepared aseptically following GMP protocols. The affected areas of the body variously included the scalp, face, arms, and legs. Without knowing which one of the four solutions they were applying, the subjects self-applied one of the solutions to the skin. After initial application, the subjects gently massaged the solutions into their skin. This was done twice daily for 1 week. Lesions (actinic keratosis) were palpated and visualized by a trained lesion counter who is a board certified dermatologist. The same investigator evaluated each subject at each visit for consistency. The subjects were evaluated at baseline, day 3, day 7, day 14, day 28, day 56 and day 90. Within the treatment area, the number of lesions were counted, regardless of their size. The change in the number of lesions (% decline from baseline) within the treatment area was calculated and the results are shown in the table below: […]

[2] = tested on: insulin-like growth factor-1 (IGF-1); conditions: shown in WO 02/102804; cited from earlier work
[3] = cited from earlier work

In the case of `COc1cc([C@@H]2c3cc4c(cc3[C@H](O)[C@H]3COC(=O)[C@@H]23)OCO4)cc(OC)c1OC` [PPP, picropodophyllin], the “% Decline from Baseline (number of lesions within the treatment area)” value (“% Decline from Baseline” below) ([1]; 0.50% w/v in propylene glycol, 28 days) is reported as −56^AB %, the “% Decline from Baseline” value ([1]; 0.50% w/v in propylene glycol, 56 days) is reported as −82^AB % and the “% Decline from Baseline” value ([1]; 0.50% w/v in propylene glycol, 90 days) is reported as −90^AB %. For the same molecule, the “% Decline from Baseline” value ([1]; 1.25% w/v in propylene glycol, 28 days) was −53^AB %, the “% Decline from Baseline” value ([1]; 1.25% w/v in propylene glycol, 56 days) was −73^AB % and the “% Decline from Baseline” value ([1]; 1.25% w/v in propylene glycol, 90 days) was −65^AB %. For the same molecule, the “% Decline from Baseline” value ([1]; 2.00% w/v in propylene glycol, 28 days) was −17%, the “% Decline from Baseline” value ([1]; 2.00% w/v in propylene glycol, 56 days) was −55^AB % and the “% Decline from Baseline” value ([1]; 2.00% w/v in propylene glycol, 90 days) was −84^AB %. For the same molecule, the “inhibition of insulin-like growth factor-1 (IGF-1)” value [2] was “potent inhibitor” and the solubility in water [3] was “nearly completely insoluble”.
